Results: article PMC10455244, “Alpha-Mangostin: A Potent Inhibitor of TRPV3 and Pro-Inflammatory Cytokine Secretion in Keratinocytes” (International Journal of Molecular Sciences, 2023)

Legend:
TRPA1 = biological target: T1, TRPA1 (Homo sapiens, UniProt O75762); experiment: Whole-cell patch-clamp, AITC-activated TRPA1 current in transfected HEK 293T cells; type: cell-based; settings: 100 µM AITC
T1 construct: host or cells: HEK 293T (transient transfection)
Method: Next, we examined the impact of alpha-mangostin on other TRP channels. TRPV4- and TRPA1 trasfected HEK 293T were activated using 300 nM GSK-1016790A (GSK101) and 100 µM allyl isothiocyanate (AITC), respectively. […] The dose–response curves were obtained by applying various concentrations of alpha-mangostin (Figure 2C).
Figure 2 Alpha-mangostin (α-MG) inhibited the TRPV3 current more effectively than other TRP channels. (A) Representative I–V curves from whole-cell recordings illustrate the inhibitory effect of 0.3 µM alpha-mangostin on TRPV4 and TRPA1 channels (GSK101: GSK-1016790A, a TRPV4 agonist; RR: ruthenium red, a TRP inhibitor; AITC: allyl isothiocyanate, a TRPA1 agonist; A967: A-967079, a TRPA1 inhibitor). Currents were elicited with ramp pulses from −100 to +100 mV over 1 s, which were repetitively applied every 20 s; the holding potential was set at 0 mV. (B) Summary of the inhibition percentage after 0.3 µM alpha-mangostin treatment at −100 mV. […]
(§1) In the whole-cell configuration, voltage ramps from −100 to +100 mV over 1 s were applied every 20 s and the holding potential was set at 0 mV. Sampling at 10 kHz and low-pass filtering at 5 kHz (w-c) were applied for all recorded currents. Recorded data were analyzed using Clampfit ver. […]

TRPV3 (G573C) = biological target: T2, TRPV3 (G573C) (Homo sapiens, UniProt Q8NET8, G573C); experiment: Whole-cell patch-clamp, spontaneous current of TRPV3 G573C mutant in HEK 293T cells; type: cell-based; settings: −100 mV, read-out: IC50, inhibition of spontaneous current of TRPV3 G573C mutant
T2 construct: host or cells: HEK 293T (transient transfection, pEGFP-N1 co-transfected as a marker)
T2 sequence (Q8NET8 1-790 G573C): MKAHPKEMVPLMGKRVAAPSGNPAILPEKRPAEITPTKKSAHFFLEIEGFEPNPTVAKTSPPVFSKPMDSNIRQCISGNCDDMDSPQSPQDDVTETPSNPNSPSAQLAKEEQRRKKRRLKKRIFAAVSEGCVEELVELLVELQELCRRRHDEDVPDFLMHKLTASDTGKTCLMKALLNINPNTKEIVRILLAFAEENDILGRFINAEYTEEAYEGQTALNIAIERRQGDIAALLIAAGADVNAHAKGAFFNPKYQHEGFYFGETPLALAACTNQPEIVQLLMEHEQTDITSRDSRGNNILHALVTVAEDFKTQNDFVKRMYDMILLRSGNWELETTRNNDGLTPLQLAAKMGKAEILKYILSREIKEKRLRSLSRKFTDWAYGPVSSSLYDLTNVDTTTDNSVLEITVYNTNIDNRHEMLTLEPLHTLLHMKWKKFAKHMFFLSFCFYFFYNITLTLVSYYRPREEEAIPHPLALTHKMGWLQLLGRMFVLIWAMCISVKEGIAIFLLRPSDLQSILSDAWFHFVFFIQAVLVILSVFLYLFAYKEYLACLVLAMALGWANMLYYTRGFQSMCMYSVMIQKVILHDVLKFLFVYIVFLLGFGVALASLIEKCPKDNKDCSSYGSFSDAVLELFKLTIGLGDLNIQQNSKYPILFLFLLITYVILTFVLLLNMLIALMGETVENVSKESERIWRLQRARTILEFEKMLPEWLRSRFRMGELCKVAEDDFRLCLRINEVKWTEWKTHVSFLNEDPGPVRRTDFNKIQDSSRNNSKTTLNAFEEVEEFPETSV
Method: For electrophysiology recording and calcium measurement, 10 µM 74a (a TRPV3 inhibitor) was added about 6 h after transfection to inhibit channel activities and prevent cell death. First, the electrophysiology activities of the mutations were recorded using a whole-cell patch-clamp. Our data presented spontaneous TRPV3 currents when −100 mV to 100 mV ramp pulses were applied, which dramatically declined with the addition of 1 µM alpha-mangostin (Figure 4A).
Figure 4 Alpha-mangostin inhibited the activity of hyperactive TRPV3 mutant channels and rescued mutation-induced cell death. (A) Alpha-mangostin inhibited the channel current in representative TRPV3 (G573S)- and TRPV3 (G573C)-expressing HEK 293T cells. […] Currents were normalized to the response at −100 mV before adding alpha-mangostin. (C) Alpha-mangostin inhibited TRPV3-mediated intracellular calcium increase in TRPV3 (G573S)-expressing HEK 293T cells. […] The bar graph on the right summarizes the change in the intracellular calcium rise inhibited by alpha-mangostin. […]
as §1

T1 sequence (O75762 whole entry, species assumed): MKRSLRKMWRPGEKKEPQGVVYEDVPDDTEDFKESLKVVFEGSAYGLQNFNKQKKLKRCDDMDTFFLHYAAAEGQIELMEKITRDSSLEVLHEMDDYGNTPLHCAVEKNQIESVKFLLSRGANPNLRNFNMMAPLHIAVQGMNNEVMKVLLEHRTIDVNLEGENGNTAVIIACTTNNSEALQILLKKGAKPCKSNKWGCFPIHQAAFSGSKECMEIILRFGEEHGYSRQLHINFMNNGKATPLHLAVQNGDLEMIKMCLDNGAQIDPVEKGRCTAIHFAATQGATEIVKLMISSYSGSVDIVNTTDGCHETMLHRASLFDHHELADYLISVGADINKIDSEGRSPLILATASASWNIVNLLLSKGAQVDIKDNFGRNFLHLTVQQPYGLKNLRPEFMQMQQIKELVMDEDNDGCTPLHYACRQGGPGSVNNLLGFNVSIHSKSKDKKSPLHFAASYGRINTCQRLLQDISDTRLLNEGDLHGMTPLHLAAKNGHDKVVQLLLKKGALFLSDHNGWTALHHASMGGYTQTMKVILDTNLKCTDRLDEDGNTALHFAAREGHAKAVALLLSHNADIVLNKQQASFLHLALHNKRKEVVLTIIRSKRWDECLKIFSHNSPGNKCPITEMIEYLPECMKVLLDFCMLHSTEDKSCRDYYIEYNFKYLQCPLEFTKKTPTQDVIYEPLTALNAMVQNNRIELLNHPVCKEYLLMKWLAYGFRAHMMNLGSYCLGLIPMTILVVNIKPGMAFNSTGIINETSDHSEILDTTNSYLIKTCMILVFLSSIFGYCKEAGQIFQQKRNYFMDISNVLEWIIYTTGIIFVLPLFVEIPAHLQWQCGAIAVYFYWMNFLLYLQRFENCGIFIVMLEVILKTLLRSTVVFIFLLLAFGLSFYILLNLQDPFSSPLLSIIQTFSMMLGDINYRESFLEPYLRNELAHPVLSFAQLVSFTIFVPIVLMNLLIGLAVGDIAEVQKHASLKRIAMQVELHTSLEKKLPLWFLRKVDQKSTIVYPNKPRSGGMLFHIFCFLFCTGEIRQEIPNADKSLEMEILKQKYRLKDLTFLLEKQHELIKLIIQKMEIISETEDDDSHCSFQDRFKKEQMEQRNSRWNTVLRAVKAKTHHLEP

COc1c(O)cc2oc3cc(O)c(CC=C(C)C)c(O)c3c(=O)c2c1CC=C(C)C [Alpha-mangostin]
inhibition at 0.3 µM (TRPA1; HEK-293T, 0.3 µM, −100 mV, read-out: Inhibition percentage of TRPA1 current): 24.8%
IC50 (TRPA1; transfected HEK 293T, read-out: IC50, inhibition of TRPA1 current): 5.09 ± 2.21 µM
IC50 (TRPV3 (G573C)): 1940 ± 400 nM
